From patent US9096500B2, “Acyl sulfonamide compounds” (Pfizer Limited, priority 2010, dated 2015)
Where a name gives a salt, the structure may show the parent alone.

Target: T1, Nav1.7 (or SCN9A) channel (Homo sapiens, UniProt Q15858)
T1 construct: expressed in transfected cells
Test: Nav1.7 (hSCN9A) electrophysiology assay, PatchXpress platform
Assay type: cell-based
Conditions: estimated IC50 from single point electrophysiology data, HEK cells stably expressing hSCN9A, held at V1/2 of inactivation, read-out: Nav1.7 EIC50
Procedure: The ability of the compounds of formula (I) to block the Nav1.7 (or SCN9A) channel were measured using the assay described below.
Human Embryonic Kidney (HEK) cells were transfected with an hSCN9A construct using lipofectamine reagent (Invitrogen), using standard techniques. Cells stably expressing the hSCN9A constructs were identified by their resistance to G-418 (400 μg/ml). Clones were screened for expression using the whole-cell voltage-clamp technique.
HEK cells stably transfected with hSCN9A were maintained in DMEM medium supplemented with 10% heat-inactivated fetal bovine serum and 400 μg/ml G-418 in an incubator at 37° C. with a humidified atmosphere of 10% CO2. For HTS, cells were harvested from flasks by trypsinization and replated in an appropriate multi-well plate (typically 96 or 384 wells/plate) such that confluence would be achieved within 24 hours of plating. For electrophysiological studies, cells were removed from the culture flask by brief trypsinization and re-plated at low density onto glass cover slips. Cells were typically used for electrophysiological experiments within 24 to 72 hours after plating.
Cover slips containing HEK cells expressing hSCN9A were placed in a bath on the stage of an inverted microscope and perfused (approximately 1 ml/minutes) with extracellular solution of the following composition: 138 mM NaCl, 2 mM CaCl2, 5.4 mM KCl, 1 mM MgCl2, 10 mM glucose, and 10 mM HEPES, pH 7.4, with NaOH. […] The osmolarity of the extracellular and intracellular solutions was 300 mOsm/kg and 295 mOsm/kg, respectively. All recordings were made at room temperature (22-24° C.) using AXOPATCH 200B amplifiers and PCLAMP software (Axon Instruments, Burlingame, Calif.).
hSCN9A currents in HEK cells were measured using the whole-cell configuration of the patch-clamp technique (Hamill et al., 1981). Uncompensated series resistance was typically 2 to 5 mega ohms and >85% series resistance compensation was routinely achieved. […] Current records were acquired at 20 to 50 KHz and filtered at 5 to 10 KHz.
HEK cells stably transfected with hSCN9A were viewed under Hoffman contrast optics and placed in front of an array of flow pipes emitting either control or compound-containing extracellular solutions. All compounds were dissolved in dimethyl sulfoxide to make 10 mM stock solutions, which were then diluted into extracellular solution to attain the final concentrations desired. […] The voltage-dependence of inactivation was determined by applying a series of depolarizing prepulses (8 sec long in 10 mV increments) from a negative holding potential. The voltage was then immediately stepped to 0 mV to assess the magnitude of the sodium current. Currents elicited at 0 mV were plotted as a function of prepulse potential to allow estimation of the voltage at which 50% of the channels were inactivated (midpoint of inactivation or V1/2). Compounds were tested for their ability to inhibit hSCN9A sodium channels by activating the channel with a 20 msec voltage step to 0 mV following an 8 second conditioning prepulse to the empirically determined V1/2. Compound effect (% inhibition) was determined by difference in current amplitude before and after application of test compounds. […] Inhibition values <20% and >80% were excluded from the calculation.
Electrophysiological assays were conducted with PatchXpress 7000 hardware and associated software (Molecular Devices Corp). All assay buffers and solutions were identical to those used in conventional whole-cell voltage clamp experiments described above. hSCN9A cells were grown as above to 50%-80% confluency and harvested by trypsinization. Trypsinized cells were washed and resuspended in extracellular buffer at a concentration of 1×10^6 cells/ml. The onboard liquid handling facility of the PatchXpress was used for dispensing cells and application of test compounds.

T1 sequence (Q15858 whole entry): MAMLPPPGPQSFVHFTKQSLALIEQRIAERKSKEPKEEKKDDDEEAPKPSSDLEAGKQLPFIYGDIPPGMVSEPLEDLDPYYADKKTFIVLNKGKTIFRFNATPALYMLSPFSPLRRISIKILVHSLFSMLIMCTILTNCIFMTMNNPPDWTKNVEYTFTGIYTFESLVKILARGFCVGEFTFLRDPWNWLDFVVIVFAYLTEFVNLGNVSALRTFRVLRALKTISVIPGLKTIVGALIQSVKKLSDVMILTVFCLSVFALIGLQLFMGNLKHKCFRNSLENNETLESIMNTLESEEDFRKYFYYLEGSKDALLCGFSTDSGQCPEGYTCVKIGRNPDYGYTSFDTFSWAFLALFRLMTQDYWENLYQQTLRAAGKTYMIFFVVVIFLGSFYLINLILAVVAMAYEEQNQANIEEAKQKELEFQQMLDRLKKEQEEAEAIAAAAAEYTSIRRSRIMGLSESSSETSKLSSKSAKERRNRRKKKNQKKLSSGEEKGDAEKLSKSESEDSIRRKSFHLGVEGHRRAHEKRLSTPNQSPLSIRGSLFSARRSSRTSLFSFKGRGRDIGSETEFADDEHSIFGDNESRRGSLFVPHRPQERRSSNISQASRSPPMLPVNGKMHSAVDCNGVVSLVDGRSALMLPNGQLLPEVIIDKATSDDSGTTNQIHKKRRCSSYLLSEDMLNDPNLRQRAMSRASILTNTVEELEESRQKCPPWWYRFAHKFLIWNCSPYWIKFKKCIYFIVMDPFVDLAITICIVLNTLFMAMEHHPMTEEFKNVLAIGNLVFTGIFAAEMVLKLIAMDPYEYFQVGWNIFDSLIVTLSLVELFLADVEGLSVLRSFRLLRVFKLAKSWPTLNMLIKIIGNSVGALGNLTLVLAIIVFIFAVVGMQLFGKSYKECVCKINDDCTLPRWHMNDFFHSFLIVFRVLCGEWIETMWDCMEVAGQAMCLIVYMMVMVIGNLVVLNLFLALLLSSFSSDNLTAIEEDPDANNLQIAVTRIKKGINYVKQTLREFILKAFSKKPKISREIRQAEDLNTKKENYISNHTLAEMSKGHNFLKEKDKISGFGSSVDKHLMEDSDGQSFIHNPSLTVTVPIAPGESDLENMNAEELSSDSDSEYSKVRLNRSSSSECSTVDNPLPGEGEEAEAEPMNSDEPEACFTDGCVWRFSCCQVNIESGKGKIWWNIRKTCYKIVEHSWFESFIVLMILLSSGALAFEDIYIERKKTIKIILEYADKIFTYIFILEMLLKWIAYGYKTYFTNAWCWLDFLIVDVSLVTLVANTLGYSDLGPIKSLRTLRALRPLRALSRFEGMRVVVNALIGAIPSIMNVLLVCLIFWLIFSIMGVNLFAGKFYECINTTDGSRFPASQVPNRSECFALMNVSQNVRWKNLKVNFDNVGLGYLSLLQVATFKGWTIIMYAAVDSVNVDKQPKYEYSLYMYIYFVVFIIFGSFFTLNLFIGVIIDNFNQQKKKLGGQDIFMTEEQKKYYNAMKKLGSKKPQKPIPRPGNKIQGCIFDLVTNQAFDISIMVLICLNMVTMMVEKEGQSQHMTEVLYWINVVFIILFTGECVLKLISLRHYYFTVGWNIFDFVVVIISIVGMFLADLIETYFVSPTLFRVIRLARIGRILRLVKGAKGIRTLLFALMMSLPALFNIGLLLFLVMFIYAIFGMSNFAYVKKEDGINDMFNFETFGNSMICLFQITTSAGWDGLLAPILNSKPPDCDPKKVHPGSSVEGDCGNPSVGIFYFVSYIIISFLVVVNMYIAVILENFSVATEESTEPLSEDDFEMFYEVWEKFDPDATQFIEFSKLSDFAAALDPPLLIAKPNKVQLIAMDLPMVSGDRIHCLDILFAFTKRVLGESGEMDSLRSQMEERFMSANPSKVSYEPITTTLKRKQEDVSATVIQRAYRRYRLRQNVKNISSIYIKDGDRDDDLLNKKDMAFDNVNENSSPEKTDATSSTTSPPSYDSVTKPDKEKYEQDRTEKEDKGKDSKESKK

| Compound | IC50 [nM] |
| --- | --- |
| COc1ccccc1OCc1cc(F)c(C(=O)NS(C)(=O)=O)cc1F [Example 14, 2,5-Difluoro-4-((2-methoxyphenoxy)methyl)-N-(methylsulfonyl)benzamide] | 8100 |
| Cn1nccc1-c1ccc(OCc2ccc(C(=O)NS(C)(=O)=O)cc2)cc1 [Example 37, 4-{[4-(1-Methyl-1H-pyrazol-5-yl)phenoxy]methyl}-N-(methylsulfonyl)benzamide diethylamine salt] | > 3000 |
| Cc1ccc(COc2cc(F)c(C(=O)NS(C)(=O)=O)cc2F)cc1C [Example 203, 4-[(3,4-dimethylbenzyl)oxy]-2,5-difluoro-N-(methylsulfonyl)benzamide] | 1700 |
| Cc1ccc(OCc2cc(F)c(C(=O)NS(C)(=O)=O)cc2F)cc1C [Example 120, 4-[(3,4-dimethylphenoxy)methyl]-2,5-difluoro-N-(methylsulfonyl)benzamide] | 700 |
| CS(=O)(=O)NC(=O)c1ccc(OCc2ccc(C#N)cc2)cc1 [Example 172, 4-[(4-cyanobenzyl)oxy]-N-(methylsulfonyl)benzamide] | > 3000 |
| CS(=O)(=O)NC(=O)c1ccc(COc2ccc(Cl)cc2)cc1 [Example 18, 4-((4-Chlorophenoxy)methyl)-N-(methylsulfonyl)benzamide Diethylamine salt] | 930 |
| CS(=O)(=O)NC(=O)c1ccc(COc2ccc(Cl)c(C(F)(F)F)c2)cc1 [Example 27, 4-{[4-Chloro-3-(trifluoromethyl)phenoxy]methyl}-N-(methylsulfonyl)benzamide] | 380 |
| CS(=O)(=O)NC(=O)c1cc(F)c(OCc2ccccc2OC(F)F)cc1F [Example 218, 4-{[2-(difluoromethoxy)benzyl]oxy}-2,5-difluoro-N-(methylsulfonyl)benzamide] | 3400 |
| CS(=O)(=O)NC(=O)c1cc(F)c(COc2cccc(N3CCOCC3)c2)cc1F [Example 136, 2,5-difluoro-N-(methylsulfonyl)-4-[(3-morpholin-4-ylphenoxy)methyl]benzamide] | > 3000 |
| CS(=O)(=O)NC(=O)c1cc(F)c(OCc2ccccc2C(F)(F)F)cc1F [Example 220, 2,5-difluoro-N-(methylsulfonyl)-4-{[2-(trifluoromethyl)benzyl]oxy}benzamide] | 1700 |
| CS(=O)(=O)NC(=O)c1cc(F)c(OCc2cccc(C(F)(F)F)c2)cc1F [Example 192, 2,5-difluoro-N-(methylsulfonyl)-4-{[3-(trifluoromethyl)benzyl]oxy}benzamide] | 3100 |
| COc1cc(C)cc(OCc2cc(F)c(C(=O)NS(C)(=O)=O)cc2F)c1 [Example 150, 2,5-difluoro-4-[(3-methoxy-5-methylphenoxy)methyl]-N-(methylsulfonyl)benzamide] | 500 |
| CS(=O)(=O)NC(=O)c1ccc(OCc2ccc(F)cc2)cc1 [Example 176, 4-[(4-fluorobenzyl)oxy]-N-(methylsulfonyl)benzamide] | > 1000 |
| CS(=O)(=O)NC(=O)c1ccc(COc2ccc(C3CCNCC3)cc2)cc1 [Example 36, N-(methylsulfonyl)-4-[(4-piperidin-4-ylphenoxy)methyl]benzamide diethylamine salt] | > 3000 |
| COc1cc(Cl)cc(OCc2cc(F)c(C(=O)NS(C)(=O)=O)cc2F)c1 [Example 98, 4-[(3-chloro-5-methoxyphenoxy)methyl]-2,5-difluoro-N-(methylsulfonyl)benzamide] | 140 |
| Cc1c(OCc2cc(F)c(C(=O)NS(C)(=O)=O)cc2F)cccc1-n1cccn1 [Example 102, 2,5-difluoro-4-{[2-methyl-3-(1H-pyrazol-1-yl)phenoxy]methyl}-N-(methylsulfonyl)benzamide] | > 3000 |
| CS(=O)(=O)NC(=O)c1cc(Cl)c(COc2ccc(OC(F)(F)F)c(Cl)c2)cc1F [Example 60, 5-Chloro-4-((3-chloro-4-(trifluoromethoxy)phenoxy)methyl)-2-fluoro-N-(methylsulfonyl)benzamide] | 29 |

| Compound | IC50 [nM] |
| --- | --- |
| CS(=O)(=O)NC(=O)c1cc(F)c(COc2ccc(F)c(C(F)(F)F)c2)cc1F [Example 142, 2,5-difluoro-4-{[4-fluoro-3-(trifluoromethyl)phenoxy]methyl}-N-(methylsulfonyl)benzamide] | 600 |
| COc1ccc(OCc2cc(F)c(C(=O)NS(C)(=O)=O)cc2F)c(F)c1F [Example 155, 4-[(2,3-difluoro-4-methoxyphenoxy)methyl]-2,5-difluoro-N-(methylsulfonyl)benzamide] | 3200 |
| CS(=O)(=O)NC(=O)c1cc(F)c(COc2cc(F)cc(Cl)c2)cc1F [Example 124, 4-[(3-chloro-5-fluorophenoxy)methyl]-2,5-difluoro-N-(methylsulfonyl)benzamide] | 180 |
| Cn1nccc1-c1cc(Cl)ccc1OCc1ccc(C(=O)NS(C)(=O)=O)cc1 [Example 38, 4-{[4-Chloro-2-(1-methyl-1H-pyrazol-5-yl)phenoxy]methyl}-N-(methylsulfonyl)benzamide diethylamine salt] | > 3000 |
| CS(=O)(=O)NC(=O)c1cc(F)c(COc2ccc(F)cc2C#N)cc1F [Example 153, 4-[(2-cyano-4-fluorophenoxy)methyl]-2,5-difluoro-N-(methylsulfonyl)benzamide] | 12000 |
| CCc1ccccc1OCc1cc(F)c(C(=O)NS(C)(=O)=O)cc1F [Example 112, 4-[(2-ethylphenoxy)methyl]-2,5-difluoro-N-(methylsulfonyl)benzamide] | 1400 |
| Cc1ccc(Cl)cc1OCc1cc(F)c(C(=O)NS(C)(=O)=O)cc1F [Example 100, 4-[(5-chloro-2-methylphenoxy)methyl]-2,5-difluoro-N-(methylsulfonyl)benzamide] | 390 |
| CS(=O)(=O)NC(=O)c1cc(F)c(OCc2ccc(Cl)c(Cl)c2)cc1F [Example 9, 4-[(3,4-Dichlorobenzyl)oxy]-2,5-difluoro-N-(methylsulfonyl)benzamide] | 670 |
| CS(=O)(=O)NC(=O)c1ccc(OCc2ccc(Cl)cc2)cc1 [Example 88, 4-[(4-chlorobenzyl)oxy]-N-(methylsulfonyl)benzamide] | 6100 |
| COc1cc(C)ccc1COc1cc(F)c(C(=O)NS(C)(=O)=O)cc1F [Example 200, 2,5-difluoro-4-[(2-methoxy-4-methylbenzyl)oxy]-N-(methylsulfonyl)benzamide] | 5000 |
| Cc1nc(-c2cccc(OCc3cc(F)c(C(=O)NS(C)(=O)=O)cc3F)c2)no1 [Example 166, 2,5-difluoro-4-{[3-(5-methyl-1,2,4-oxadiazol-3-yl)phenoxy]methyl}-N-(methylsulfonyl)benzamide] | 1300 |
| CS(=O)(=O)NC(=O)c1cc(F)c(COc2cccc(F)c2)cc1F [Example 116, 2,5-difluoro-4-[(3-fluorophenoxy)methyl]-N-(methylsulfonyl)benzamide] | 570 |
| COc1ccc(COc2ccc(C(=O)NS(C)(=O)=O)cc2)cc1 [Example 89, 4-[(4-methoxybenzyl)oxy]-N-(methylsulfonyl)benzamide] | > 3000 |
| CS(=O)(=O)NC(=O)c1ccc(OCc2ccccc2OC(F)(F)F)c(C#N)c1 [Example 76, 3-cyano-N-(methylsulfonyl)-4-{[2-(trifluoromethoxy)benzyl]oxy}benzamide] | 10000 |
| COc1cc(COc2cc(F)c(C(=O)NS(C)(=O)=O)cc2F)cc(OC)c1 [Example 201, 4-[(3,5-dimethoxybenzyl)oxy]-2,5-difluoro-N-(methylsulfonyl)benzamide] | > 1000 |
| COc1ccccc1OCc1ccc(C(=O)NS(C)(=O)=O)cc1 [Example 34, 4-[(2-Methoxyphenoxy)methyl]-N-(methylsulfonyl)benzamide] | 8500 |
| Cc1ccc(OCc2cc(F)c(C(=O)NS(C)(=O)=O)cc2F)cc1 [Example 115, 2,5-difluoro-4-[(4-methylphenoxy)methyl]-N-(methylsulfonyl)benzamide] | 620 |
